For data set [1], the system named is 6 Hz-induced psychomotor seizures. Put plainly: 6 Hz psychomotor seizure test. The format is in vivo, mice. The following applies: for ED50: Mus musculus, ip; for Protective index (TD50/ED50): TD50 chimney test / ED50 6 Hz test. The procedure: All experiments on animals were performed in accordance with EU Directive 2010/63/EU for animal experiments and complied with the ARRIVE guidelines. Ethics approval for animal experimentations was obtained from the Local Ethics Committee (Lublin, Poland, approval number: 65/2018). Psychomotor seizures in mice were evoked by current (6 Hz, 0.2 ms rectangular pulse width, 32 mA, 3 s duration) generated by an S48 Square Pulse Stimulator and CCU1 Constant Current Unit (Grass Technologies, West Warwick, RI, USA). After application of ophthalmic anaesthetic (0.5% tetracaine hydrochloride) to the mice corneas, the animals underwent corneal stimulation and were placed separately in plexiglas cages (25 × 15 × 10 cm) for the observation of the presence or absence of psychomotor seizures. The animals were administered with increasing doses of TP-10, TP-315, TP-427, and the anticonvulsant activity of each compound was evaluated as the ED50 value (median effective dose of the drug, which protects 50% of mice against convulsions) calculated using the log-probit method of Litchfield and Wilcoxon[18].

Data set [2] in a line: DPPH assay. The following applies: methanol, 30 min, 517 nm. On the procedure:
Free radical scavenging activity of compounds TP-10, TP-315 and TP-427 was evaluated using DPPH assay. Briefly, 25 µl of 0.2 mM of methanolic solution of DPPH ([…]) was mixed with 175 µl of varying concentrations (0.002–4.5 mg/ml) of the studied compounds dissolved in methanol. Reaction mixtures in the 96-well plate were incubated in the dark at room temperature for 30 min. The absorbance was measured at 517 nm against blank (which consists of all reagents without the investigated compounds) using a microplate reader (Epoch, BioTek Instruments, Inc., Winooski, VT, USA). As a reference, the antioxidant activity of vitamin C was evaluated. Each concentration of the compounds was assayed at least six times. The results were expressed as the IC50 (µg/ml) ± SD calculated using the linear regression analysis.
For orientation: DPPH is a stable violet radical that fades when it is reduced.

For data set [3], the system named is U-87 MG cells. Put plainly: Total ROS activity assay (flow cytometry). The format is cell-based, human. The following applies: 10 µg/ml, 24 h; for ROS positive cells: control 90.2%. The procedure: Total ROS activity was measured using Intracellular Total ROS Activity Assay Kit (ImmunoChemistry Technologies, Bloomington, MN, USA). After 24 h of incubation of glioblastoma cells U-87 MG (ATCC, Manassas, VA, USA) with the test compounds in concentration 10 µg/ml, the medium was removed, the cells were washed twice with the cold PBS solution and the Assay Buffer (provided by the kit manufacturer) was added. Then, cells (at a density of 1 × 10^6 cells/ml) were treated with 10 µl of Total ROS green reagent and incubated for 1 h at 37 °C in a CO2 incubator. After incubation, the cells were subjected to a rinsing procedure using the Assay Buffer. Cells were suspended in 500 µl of the Assay Buffer and analysed using a flow cytometer (BD FACSCanto II flow cytometer) and FACSDiva software (both from BD Biosciences Systems, San Jose, CA, USA).

The test system of data set [4] is U-87 MG cells. The experiment in a line: Mitochondrial membrane potential, JC-1 dye (flow cytometry). Format: cell-based, human. The following applies: 10 μg/ml, 24 h, control 5.0%. On the procedure: Mitochondrial membrane potential changes (ΔMMP) were assessed using the JC-1 MitoScreen Kit (BD Biosciences Systems, San Jose, CA, USA) as described previously. Sample of 10^6 cells/ml was suspended in a buffer mixture and incubated for 15 min at 37 °C with JC-1 dye provided by the kit manufacturer. Subsequently, the cells were washed and resuspended in a buffer. Samples prepared in this way were subjected to cytometric analysis using a cytometer BD FACSCanto II and FACSDiva software (both from BD Biosciences Systems, San Jose, CA, USA).

The target of data set [5] is T1, hCA II (Homo sapiens, UniProt P00918).
T1 construct: made in house
Put plainly: Carbonic anhydrase inhibition, stopped flow CO2 hydration. Format: biochemical. On the procedure:
Carbonic anhydrase catalysed CO2 hydration activity was measured using an Applied Photophysics stopped-flow spectrometer. […] The uncatalyzed rates were determined in the same manner and subtracted from the total observed rates. Stock solutions of inhibitor (0.1 mM) were prepared in distilled-deionized water and dilutions up to 0.01 nM were done thereafter with the assay buffer. […] The inhibition constants were obtained by non-linear least-squares methods using PRISM 3 and the Cheng–Prusoff equation and represent the mean from at least three different determinations. All CA isoforms were recombinant ones obtained in-house[21]^,[22].

Data set [6] relates to human recombinant acetylcholinesterase (hrAChE). The experiment in a line: AChE inhibition, Ellman method. As to conditions: 500 µM. Format: biochemical. On the procedure:
(§1) The inhibition ability of tested compounds against human recombinant acetylcholinesterase (hrAChE) and human recombinant butyrylcholinesterase (hrBChE) was determined by standard Ellman method adapted for 96-well plate. The reaction mixture contained 10 µL of hrAChE (70 ng/mL protein final concentration) or hrBChE (220 ng/mL protein final concentration), 10 µL of tested compound (1, 10, 100, and 500 µM final concentration), 20 µL of 5,5′-dithiobis-2-nitrobenzoic acid (DTNB; 500 µM final concentration), and 60 µL of 20 mM Na-phosphate buffer (pH 7.4). The mixture was pre-incubated at 37 °C for 15 min and subsequently 10 µL substrate acetylthiocholine iodide (ATChI) or butyrylthiochiline iodide (BTChI) was added to the final concentration of 1000 µM[24]. The final volume of reaction mixture was 100 µL. The product formed during the reaction (5-thio-2-nitrobenzoic acid, TNB) was determined by measurement of its absorbance at 436 nm. The catalytic activity was evaluated as amount of product (%) formed by enzyme after 10 min of mixture incubation at 37 °C.
(In general: Ellman's reagent forms a yellow product with free thiols.)

Data set [7] relates to human recombinant butyrylcholinesterase (hrBChE). Put plainly: BChE inhibition, Ellman method. The following applies: 500 µM. The format is biochemical. The procedure: as §1
The mark [8] stands for this setting: mice, i.p., 32 mA, pretreatment time 15 min, read-out: ED50 ± SEM.
Setting [9] is: mice, i.p., 32 mA, pretreatment time 30 min, read-out: ED50 ± SEM.
[10] abbreviates: mice, i.p., 32 mA, pretreatment time 60 min, read-out: ED50 ± SEM.
Where [11] appears, read: mice, i.p., 32 mA, pretreatment time 120 min, read-out: ED50 ± SEM.
Where [12] appears, read: mice, i.p., pretreatment times 15 to 120 min, read-out: ED50, range over the time-course.
The mark [13] stands for this setting: 1 h incubation, read-out: KI hCA II (1h).
[14] abbreviates: 6 h incubation, read-out: KI hCA II (6h).
Where [15] appears, read: incubation time not given, read-out: Ki CA II.

In brackets after ≈: the same amount, converted by molar mass. Where two headings read alike, the source gives them in different places. A value given as a limit tells only on which side of the number the result lay.

The ED50 is the midpoint of the dose-response relation. The term Ki denotes a dissociation constant, usually derived from enzyme kinetics or from competition with a known ligand.

With `Cc1ccc(-n2c(-c3cccc(Cl)c3)n[nH]c2=S)cc1` [TP-10, 5-(3-chlorophenyl)-4-(4-methylphenyl)-2,4-dihydro-3H-1,2,4-triazole-3-thione], the ED50 is approximately 60 mg/kg in data set [1] (0.5 h, within the first 30 min after i.p. administration, read-out: ED50 (constant activity)); 62.6 ± 13.2 mg/kg in data set [1] (setting [8]); 61.1 ± 9.7 mg/kg in data set [1] (setting [9]); 170 ± 18.5 mg/kg in data set [1] (setting [10]); 168 ± 17.4 mg/kg in data set [1] (setting [11]); 61.1 to 170 mg/kg in data set [1] (setting [12]). The “Protective index (TD50/ED50)” value in data set [1] (pretreatment time 15 min) is listed as 5.4; in data set [1] (pretreatment time 30 min) it was 5.5; in data set [1] (pretreatment time 60 min) it was 2.0; in data set [1] (pretreatment time 120 min) it was 2.4. The “Peak of anticonvulsant activity (time after i.p. administration)” value (from here on “Peak … (time after i.p. administration)”) in data set [1] (mice, i.p.) was found to be 30 min. Further, the “IC50 ± SD, DPPH” value in data set [2] was found to be 31.72 ± 1.05 µg/mL (≈ 105 µM). In data set [3], this compound registered an ROS negative cells of 11.5%. This compound registered an ROS positive cells in data set [3] of 88.5%. The “cells with low mitochondrial membrane potential (ΔΨm)” value (from here on “cells … (ΔΨm)”) in data set [4] is recorded as 8.0%. The figures for the Ki in data set [5] (setting [13]) and in data set [5] (setting [14]) were 74.6 µM and more than 100 µM, respectively. Besides, in data set [6], the “decrease of hrAChE activity” value is approximately 54%. The hrBChE activity in data set [7] was 84%.

For the compound `CCCCCCn1c(-c2cccc(Cl)c2)n[nH]c1=S` [TP-315, 5-(3-chlorophenyl)-4-hexyl-2,4-dihydro-3H-1,2,4-triazole-3-thione], the ED50 in data set [1] (setting [8]) was 61.3 ± 10.1 mg/kg; in data set [1] (setting [9]), 59.7 ± 6.8 mg/kg; in data set [1] (setting [10]), 68.1 ± 11 mg/kg; in data set [1] (setting [11]), 136 ± 18.3 mg/kg; in data set [1] (setting [12]), 59.7 to 136 mg/kg. The “Protective index (TD50/ED50)” value in data set [1] (pretreatment time 15 min) stood at 7.6; in data set [1] (pretreatment time 30 min), 7.8; in data set [1] (pretreatment time 60 min), 6.7; in data set [1] (pretreatment time 120 min), 3.3. In addition, the “Peak … (time after i.p. administration)” value in data set [1] (mice, i.p.) is on record as 30 min. The “IC50 ± SD, DPPH” value in data set [2] is 56.87 ± 0.70 µg/mL (≈ 192 µM). Also, the ROS negative cells in data set [3] was 14.1%. In addition, the ROS positive cells in data set [3] was determined as 85.9%. Also, in data set [4], the “cells … (ΔΨm)” value stood at 9.9%. Moreover, the Ki in data set [5] (setting [13]), in data set [5] (setting [14]) and in data set [5] (setting [15]) was more than 100 µM each time. Besides, the “decrease of hrAChE activity” value in data set [6] was approximately 66%. Further, the hrBChE activity in data set [7] came to 59%.

Turning to `CCCCCCn1c(Cc2cccc(Cl)c2)n[nH]c1=S` [TP-427, 5-(3-chlorobenzyl)-4-hexyl-2,4-dihydro-3H-1,2,4-triazole-3-thione], the ED50 in data set [1] (setting [8]) is 40.9 ± 6.4 mg/kg; in data set [1] (setting [9]) it was 46.6 ± 8.2 mg/kg; in data set [1] (setting [10]) it was 51.6 ± 6.9 mg/kg; in data set [1] (setting [11]), 64.9 ± 5.6 mg/kg; in data set [1] (setting [12]) it was 40.9 to 64.9 mg/kg. The “Protective index (TD50/ED50)” value is listed as more than 24.4 in data set [1] (pretreatment time 15 min), more than 21.5 in data set [1] (pretreatment time 30 min), 10.5 in data set [1] (pretreatment time 60 min) and 8.5 in data set [1] (pretreatment time 120 min). In addition, the “Peak … (time after i.p. administration)” value in data set [1] (mice, i.p.) is 15 min. In addition, the “IC50 ± SD, DPPH” value in data set [2] is 110.51 ± 2.12 µg/mL (≈ 357 µM). In data set [3], the ROS negative cells is 20.9%. Besides, the ROS positive cells in data set [3] came to 79.1%. Besides, the “cells … (ΔΨm)” value in data set [4] is 16.5%. Further, the Ki in data set [5] (setting [13]), in data set [5] (setting [14]) and in data set [5] (setting [15]) was more than 100 µM in each case. The “decrease of hrAChE activity” value in data set [6] was approximately 61%. Further, the hrBChE activity in data set [7] amounted to 78%.

The values are drawn from PMC7178883, “1,2,4-Triazole-based anticonvulsant agents with additional ROS scavenging activity are effective in a model of pharmacoresistant epilepsy” (Journal of Enzyme Inhibition and Medicinal Chemistry, 2020).
